Results taken from paper PMC11306024, “Novel metabolite madeirone and neomarinone extracted from Streptomyces aculeoletus as marine antibiofilm and antifouling agents” (Frontiers in Chemistry, 2024).
Where two headings read alike, the source gives them in different places.

Key:
[1] = system: C. marina; test: Antibiofilm activity (inhibition of biofilm formation); format: cell-based, Cobetia marina DSM 4741; conditions: 0.16 µg/mL, 24 h, positive control
Experimental: (§1) To assess antimicrofouling activity, we selected five marine bacterial species as models: Marinobacter hydrocarbonoclasticus DSM 8798 (ATCC 49840), C. marina DSM 4741, Phaeobacter inhibens DSM 17,395, Pseusooceanicola batsensis DSM 15,984, and Micrococcus luteus DSM 20030 (ATCC 4698) ([Michael et al., 2016]). These strains, sourced from DSMZ (Leibniz Institute DSMZ—German Collection of Microorganisms and Cell Cultures), were cultured in liquid marine broth (Carl Roth GmbH, Karlsruhe, Germany) with agitation at 180 rpm or on agar-supplemented marine broth. Incubation temperatures were set at 28°C for M. hydrocarbonoclasticus and Cobetia marina, 30°C for P. inhibens and P. batsensis, while M. luteus was maintained at 37°C in Brain Heart Infusion broth (BHI, Becton Dickinson, GmbH, Heidelberg, Germany) under similar agitation conditions.
(§2) The antibiofilm potential of compounds (1) and (2) against the five marine bacterial species was investigated in 96-well polystyrene flat-bottom microplates (Nunclon Delta Surface, Thermo Scientific, Roskilde, Denmark), as described previously ([Bauermeister et al., 2019]; [Pereira et al., 2020]). In the initial screening, bacterial overnight cultures were diluted to an OD600 of 0.2 and incubated statically at appropriate temperatures. The cultures were tested at 31.25, 15.60, 7.81, 3.91, 1.95, 0.98 μg/mL concentrations (2-fold serial dilutions) of compounds (1) and (2), solubilized in DMSO, or left untreated. After 24 h (M. hydrocarbonoclasticus, C. marina) or 48 h (P. batsensis, P. inhibens, M. luteus) incubation, OD600 was measured. The planktonic cells and media were discarded, and the wells were washed twice with deionized water. Biofilms were fixed, stained, and quantified by measuring the OD600 after solubilization with acetic acid. Biofilm inhibition percentages were calculated relative to untreated bacterial species, using DMSO as a negative control and CuSO4 (0.16 μg/mL), as a positive control. All assays were performed in triplicate, and the results represent the mean and standard error of the mean (SEM). Statistical analysis was conducted using GraphPad Prism 8.0.2, employing one-way ANOVA followed by Dunnett’s multiple comparisons test against the negative control.

[2] = system: P. inhibens; test: Antibacterial activity (growth inhibition, OD600); format: cell-based, Phaeobacter inhibens DSM 17395; conditions: 0.16 µg/mL, 48 h, positive control
Experimental: as §1
(§3) The antibacterial efficacy of compounds (1) and (2) was assessed in 96-well polystyrene flat-bottom microplates (Nunclon Delta Surface, Thermo Scientific, Roskilde, Denmark) following established procedures ([Bauermeister et al., 2019]). In the initial screening, bacterial overnight cultures were diluted to an optical density (OD600nm) of 0.2 and incubated statically at appropriate temperatures. The cultures were treated with the following final concentrations per well: 31.25, 15.60, 7.81, 3.91, 1.95, and 0.98 μg/mL (2-fold serial dilutions) of the compounds, solubilized in DMSO, or left untreated. After 24 h (M. hydrocarbonoclasticus, C. marina) or 48 h (P. batsensis, P. inhibens, M. luteus) incubation, optical density at 600 nm (OD600) was measured using a Molecular Devices Spectra Max 190. Growth inhibition percentages were calculated relatively to untreated bacterial species, using DMSO as a negative control. CuSO4 (0.16 μg/mL), a recognized antifouling agent, was used as positive control. All assays were conducted in triplicate, and the results represent the mean and standard error of the mean (SEM). Statistical analysis was carried out using GraphPad Prism 8.0.2 (San Diego, CA, United States), employing one-way ANOVA followed by Dunnett’s multiple comparisons test against the negative control.

[3] = system: C. marina; test: Antibacterial activity (growth inhibition, OD600); format: cell-based, Cobetia marina DSM 4741; conditions: 0.16 µg/mL, 24 h, positive control
Experimental: as §1, §3

[4] = system: M. hydrocarbonoclasticus; test: Antibacterial activity (growth inhibition, OD600); format: cell-based, Marinobacter hydrocarbonoclasticus DSM 8798; conditions: 0.16 µg/mL, 24 h, positive control
Experimental: as §1, §3

[5] = system: P. inhibens; test: Antibiofilm activity (inhibition of biofilm formation); format: cell-based, Phaeobacter inhibens DSM 17395; conditions: 0.16 µg/mL, 48 h, positive control
Experimental: as §1, §2

[6] = system: P. batsensis; test: as above; format: cell-based, Pseudo-oceanicola batsensis DSM 15984; conditions: 0.16 µg/mL, 48 h, positive control
Experimental: as §1, §2

[7] = system: M. hydrocarbonoclasticus; test: as above; format: cell-based, Marinobacter hydrocarbonoclasticus DSM 8798; conditions: 0.16 µg/mL, 24 h, positive control
Experimental: as §1, §2

[8] = system: M. luteus; test: as above; format: cell-based, Micrococcus luteus DSM 20030; conditions: 0.16 µg/mL, 48 h, positive control
Experimental: as §1, §2

[9] = system: M. luteus; test: Antibacterial activity (growth inhibition, OD600); format: cell-based, Micrococcus luteus DSM 20030; conditions: 0.16 µg/mL, 48 h, positive control
Experimental: as §1, §3

[10] = system: P. batsensis; test: Antibacterial activity (growth inhibition, OD600); format: cell-based, Pseudo-oceanicola batsensis DSM 15984; conditions: 0.16 µg/mL, 48 h, positive control
Experimental: as §1, §3

[11] = system: Aliivibrio fischeri; test: Inhibition of bioluminescence (ISO 11348-3 micro adaptation); format: cell-based; conditions: 100 µg/mL
Experimental: The in vivo evaluation of compounds (1) and (2) for acute toxicity was performed towards marine bacterium Aliivibrio fischeri, and planktonic crustacean Daphnia magna. The chronic ecotoxicity tests were evaluated using algae Pseudokirchneriella subcapitata and Phaeodactylum tricornutum.
The inhibition of bioluminescence of the marine bacterium A. fischeri, were studied following a micro adaptation of the standard procedure ISO 11348-3 (“Water Quality-Determination of the inhibitory effect of water samples on the light emission of Vibrio fischeri - Luminescent bacteria test–using freeze-dried bacteria method”). Briefly, frozen lyophilized bacterial cells (Abraxis, Warminster, PA, United States) were reconstituted in Reconstitution Solution, supplied by the manufacturer of the Abratox kit (Abraxis). Madeirone (1) and neomarinone (2) were dissolved in DMSO and tested at the concentrations of 100, 50, 25, 12.5, 6.25, 3.13, and 1.56 μg/mL. The emitted luminescence was measured using a luminometer at time 0 min and at different exposure times (5, 15 and 30 min) and the percentage of inhibition of bioluminescence was determined. Each experiment was performed in duplicate and the results of three independent experiments with <10% SD are presented. Phenol was used as a positive control.

[12] = system: Daphnia magna; conditions: ref Tišler and Zagorc-končan, 2003; cited from earlier work
[13] = system: Alga Scenedesmus quadricauda; conditions: cited from earlier work
[14] = system: Oral rat; conditions: from reported data; ref Tišler and Zagorc-končan, 2003; cited from earlier work
[15] = system: Daphnia magna; conditions: cited from earlier work
[16] = system: Fish Orcorhynchus mykiss; conditions: ref Tišler and Zagorc-končan, 2003; cited from earlier work
[17] = system: Oral rat/rabit; design: method as in Tišler and Zagorc-končan, 2003; conditions: ref Tišler and Zagorc-končan, 2003; cited from earlier work
[18] = system: M. edulis; design: method as in Davies et al., 1997; conditions: against M. edulis; ref Davies et al., 1997; cited from earlier work

Compound: O=S(=O)([O-])[O-].[Cu+2] [CuSO4, reference compound]
- Biofilm inhibition (%) C. marina [1]: no observable inhibition and N.I.
- Growth inhibition (%) P. inhibens [2]: 66.2 ± 5.6 %
- Growth inhibition (%) C. marina [3]: No inhibition and N.I.
- Growth inhibition (%) M. hydrocarbonoclasticus [4]: 35.8 ± 0.8 %
- Biofilm inhibition (%) P. inhibens [5]: 12.9 ± 6.4%
- Biofilm inhibition (%) P. batsensis [6]: 41.4 ± 0.9%
- Biofilm inhibition (%) M. hydrocarbonoclasticus [7]: no observable inhibition and N.I.
- Biofilm inhibition (%) M. luteus [8]: no observable inhibition and N.I.
- Growth inhibition (%) M. luteus [9]: No inhibition and N.I.
- Growth inhibition (%) P. batsensis [10]: 44.8 ± 6.3 %

Compound: Oc1ccccc1 [Phenol, reference compound]
- Inhibition (%) A. fischeri (bioluminescence) [11]: 19.8%

Compound: [Cu] [compound 8, copper]
- Daphnia magna 48 h LC50 [12]: 0.030 µg/mL
- Alga Scenedesmus quadricauda 21 days NOEC [13]: 0.18 mg/L
- ATE category [14]: 3 (category 3, 50 < ATE ≤300 mg/kg, labeled as (“Toxic if swallowed”))
- Daphnia magna 21 days NOEC ([15]; in vivo): 0.015 mg/L
- Fish Orcorhynchus mykiss 96 h LC50 [16]: 0.48 µg/mL
- Oral rat/rabit LD50 [17]: 140 mg/kg

Compound: [As] [compound 9, arsenic]
- Daphnia magna 48 h LC50 [12]: 2.5 µg/mL
- Alga Scenedesmus quadricauda 21 days NOEC ([13]; footnote d as printed, ref Tišler and Zagorc-končan, 2003): 34.5 mg/L
- ATE category [14]: 2 (category 2, 5 < ATE ≤50 mg/kg, also classified as “Fatal if swallowed”)
- Daphnia magna 21 days NOEC ([15]; ref Tišler and Zagorc-končan, 2003): 1.85 mg/L
- Fish Orcorhynchus mykiss 96 h LC50 [16]: 15.3 µg/mL
- Oral rat/rabit LD50 [17]: 12 mg/kg

Compound: ivermectin
- EC50 [18]: 0.4 µg/mL
